Patent US20240398781A1, “SPIROCYCLIC CYCLIC MODULATORS OF CHOLESTEROL BIOSYNTHESIS AND THEIR USE FOR PROMOTING REMYELINATION” (GENENTECH, INC., priority 2021, published 2024)

Assays:
[1] = target: human emopamil binding protein and human 7-dehydrocholesterol reductase co-expressing cells (hEBP-DHCR7 membrane) (Homo sapiens (Human), UniProt Q15125); test: Radioligand filter binding assay on hEBP-DHCR7 membrane; settings: [3H]-(S)-6-(2-Methyl-3-(6-(trifluoromethyl)pyridin-3-yl)propyl)-2-thia-6-azaspiro[3.4]octane 2,2-dioxide radioligand, HEK293 membrane co-expressing hEBP and hDHCR7
Experimental: Membrane Preparation: human emopamil binding protein and human 7-dehydrocholesterol reductase co-expressing cells were generated by transient transfecting host human embryonic kidney (HEK) 293 cells with 2 DNA constructs containing each protein's coding sequence. Cells were suspension cultured at 37° C. with 5% CO2 in […] 293 Expression Medium (Thermofisher). Whole cell membrane was prepared by harvesting the cell pellet, adding cold membrane buffer (50 mM Tris, pH7.5, lx Roche COMPLETE EDTA-free protease inhibitor cocktail) 10 times volume of the cell pellets weight, lysing cell pellet on ice by using Dounce homogenizer, spinning at 200 g 4° C. for 15 min, collecting supernatant and spinning again at 25000 g 4° C. for 50 min, transferring pellet to Dounce homogenizer, re-suspending pellet by homogenizing in membrane buffer on ice to reach ˜25 mg/mL, then keeping whole cell membrane aliquots at −80° C.
Compounds were prepared in a 96-well U bottom plate using an Echo550 machine and 10 mM compound DMSO stock solution, followed by an 8-dose 5-fold serial dilutions protocol with final testing compound concentration ranging from 0.06 to 5000 nM, with DMSO back fill to 100 nL/well and n=2. […] The UniFilter-96 GF/B plates were pre-treated by adding 50 μl/well of 0.3% (v/v) PEI to UniFilter-96 GF/B plates. The plates were sealed and incubated at 4° C. for 3 hrs. Then, the plates were washed with ice-cold assay buffer 3 times. The radioligand binding assay was prepared by adding assay buffer diluted hEBP-DHCR7 membrane at 66.7 μg/ml×150 μl/well into the 96-well compound plate to reach 10 μg membrane per well. Then, the assay buffer diluted [3H]—(S)-6-(2-Methyl-3-(6-(trifluoromethyl)pyridin-3-yl)propyl)-2-thia-6-azaspiro[3.4] octane 2,2-dioxide was added at 25 nM×50 μl/well. Following this, the plate was centrifuged at 1000 rpm for 30 secs. The plate was then sealed and agitated at 600 rpm at 22° C. for 5 min, and then incubated at 22° C. for 3 hrs. The incubation was stopped by transferring the binding solution to the pre-treated UniFilter-96 GF/B plate, vacuum filtrated, and then washed four times with ice-cold assay buffer. Following this, the plates were dried at 37° C. for 45 min. The plates were then sealed at the bottom. 40 μl/well of scintillation cocktail was added to the plates. A MicroBeta2 microplate counter was then used to read the plate and analyze the data. For reference and test compounds, the results are expressed as % Inhibition, using the normalization equation: N=100−100×(U−C2)/(C1−C2), where U is the unknown value, C1 is the average of high controls, and C2 is the average value of low controls. The IC50 was determined by fitting percentage of inhibition as a function of compound concentrations with Hill equation using XLfit. Results are expressed as hEBP-DHCR7 Ki (uM) in Table 4. Ki was calculated as described above. The asterix (*) indicates an isolated isomer or isolated group of isomers, but that the stereochemistry has not been assigned.

EpiSC-derived OPCs = test: In vitro phenotypic screening of OPCs (MBP staining, high-content imaging); type: cell-based, mouse; settings: Mus musculus, 72 h, percentage of MBP+ oligodendrocytes, 3 days, 0.5 nM to 1000 nM; read-out: OPC EC50
Experimental: To assess effects of treatments on OPCs, all treatments were assayed in two or more independent platings of epiblast stem cell-derived OPCs (EpiSC). EpiSC-derived OPCs were obtained using in vitro differentiation protocols and culture conditions described previously (Najm et al, 2011, Nature Methods). OPCs were expanded and frozen down in aliquots. OPCs were thawed into growth conditions for at least one passage before use in further assays.
EpiSC-derived OPCs were grown and expanded in poly-L-ornithine (PO) and laminin-coated flasks in N2B27 media (DMEM/F12 (Gibco), N2-MAX (R&D Systems), B-27 (ThermoFisher), and GlutaMax (Gibco)) supplemented with FGF2 ([…], R&D systems, 233-FB-025) and PDGF-AA ([…], R&D systems, 233-AA-050) before harvesting for experiments. The cells were seeded onto poly-L-ornithine or poly-D-lysine coated CellCarrier Ultra plates (PerkinElmer) coated with laminin (Sigma, L2020) at a density of 150,000/cm^2 in N2B27 media without growth factors. For dose-response testing, a 1000× compound stock in dimethyl sulphoxide (DMSO) was added to assay plates, resulting in 8-point dose curves with final concentrations between 1000 nM and 0.5 nM. Positive controls and DMSO vehicle controls were included in each assay plate. Cells were incubated under standard conditions (37° C., 5% CO2) for 3 days and fixed with 4% paraformaldehyde (PFA) in phosphate buffered saline (PBS) for 20 min. Fixed plates were washed with PBS, permeabilized with 0.1% Triton X-100, and blocked with 10% donkey serum (v/v) in PBS for 40 min. Then, cells were labelled with MBP antibodies (Abcam, ab7349; 1:200) for 2 h at room temperature, washed with PBS, and stained with Alexa Fluor conjugated secondary antibodies (1:500) for 45 min. Nuclei were visualized by DAPI staining (Sigma; 1 μg/ml), followed by further PBS washes.
Cells and cell culture plates were imaged on the Operetta High Content Imaging and Analysis system (PerkinElmer). Analysis (PerkinElmer Harmony and Columbus software) began by identifying intact nuclei stained by DAPI. The peri-nuclear region of each cell was then cross-referenced with the mature myelin protein (MBP) stain to identify oligodendrocyte nuclei, and from this the percentage of oligodendrocytes was calculated. EC50 values were calculated using The Levenberg-Marquardt algorithm to fit a Hill equation to dose-response data (0.5 nM to 1000 nM).

[2] = test system: EBP (zymostenol accumulation in EpiSC-derived OPCs); test: GC/MS-based sterol profiling, zymostenol accumulation in OPCs; type: cell-based, mouse; settings: Mus musculus, 24 h, EpiSC-derived OPCs, 24 hr treatment, 8 doses from 0.15 nM to 333 nM; read-out: Zymostenol GCMS EC50
Experimental: To assess effects of treatments on OPCs, all treatments were assayed in two or more independent platings of epiblast stem cell-derived OPCs ([…]-derived OPCs were obtained using in vitro differentiation protocols and culture conditions described previously (Najm et al, 2011, Nature Methods). OPCs were expanded and frozen down in aliquots. OPCs were thawed into growth conditions for at least one passage before use in further assays. Sterols were monitored using a modified Folch wash protocol (Hubler et al, 2018, Nature). EpiSC-derived OPCs were plated at 100,000 cells per well in PO- and laminin-coated 96-well plates in N2B27 media without growth factors. After 24 hours, cells were rinsed with saline and plates were frozen. Cholesterol-d7 standard was then added to each well before drying under nitrogen stream and derivatization with 55 μl of bis(trimethylsilyl) trifluoroacetamide. After derivatization, 2 μl were analyzed by gas chromatography/mass spectrometry using an Agilent 5973 Network Mass Selective Detector equipped with a 6890 gas chromatograph system and a HP-5MS capillary column (30 m×0.25 mm×0.25 mm). Samples were analyzed in full scan mode using electron impact ionization; ion fragment peaks were integrated to calculate sterol abundance, and quantitation was relative to cholesterol-d7. […] All standards were obtained from Avanti Polar Lipids unless otherwise indicated. Calibration curves were generated by injecting varying concentrations of sterol standards and maintaining a fixed amount of cholesterol-D7. For normalized zymostenol accumulation results, the total amount of zymostenol measured after drug treatment was divided by the total amount of zymostenol accumulated after 24 hr treatment with 100 nM positive control reference.

human emopamil binding protein and human 7-dehydrocholesterol reductase co-expressing cells (hEBP-DHCR7 membrane), sequence (Q15125 whole entry): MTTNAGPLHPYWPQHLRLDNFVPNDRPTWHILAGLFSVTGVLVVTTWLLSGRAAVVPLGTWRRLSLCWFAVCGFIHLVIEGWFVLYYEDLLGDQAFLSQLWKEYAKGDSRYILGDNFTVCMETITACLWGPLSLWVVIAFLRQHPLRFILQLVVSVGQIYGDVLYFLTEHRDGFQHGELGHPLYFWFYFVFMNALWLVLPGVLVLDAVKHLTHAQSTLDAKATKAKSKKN

Row | SMILES | Ki [1] | EC50 (EpiSC-derived OPCs) | EC50 [2]
1 | O=S1(=O)CC2(CCN([C@H]3CC[C@@H](c4nc(-c5cccc(C(F)(F)F)n5)nn4C4CC4)C3)CC2)C1 (single isomer, unassigned) [42A*] | 570 nM | 93 nM | 43 nM
2 | O=S1(=O)CC2(CCN([C@@H]3CC[C@@H](c4nc(-c5cccc(C(F)(F)F)n5)nn4C4CC4)C3)CC2)C1 (single isomer, unassigned) [42B*] | 390 nM | 180 nM | 58 nM
3 | CC(C)n1nc(-c2cccc(C(F)(F)F)n2)cc1[C@@H]1CC[C@@H](N2CCC3(CC2)CS(=O)(=O)C3)C1 (single isomer, unassigned) [46A*] | 31 nM | 2.5 nM | 1.3 nM
4 | CC(C)n1nc(-c2cccc(C(F)(F)F)n2)cc1[C@@H]1CC[C@H](N2CCC3(CC2)CS(=O)(=O)C3)C1 (single isomer, unassigned) [46B*] | 35 nM | 4.9 nM | 2.7 nM
5 | CC(C)n1nc(-c2cccc(C(F)(F)F)n2)cc1[C@H]1CC[C@@H](N2CCC3(CC2)CS(=O)(=O)C3)C1 (single isomer, unassigned) [46C*] | 13 nM | 5.2 nM | 1.7 nM
6 | CC(C)n1nc(-c2cccc(C(F)(F)F)n2)cc1[C@H]1CC[C@H](N2CCC3(CC2)CS(=O)(=O)C3)C1 (single isomer, unassigned) [46D*] | 12 nM | 2.4 nM | 1.1 nM
7 | CC(C)n1nc(-c2ccc(C(F)(F)F)cc2)nc1[C@H]1CC[C@H](N2CCC3(C2)CS(=O)(=O)C3)C1 (single isomer, unassigned) [53A*] | 12 nM | 2.3 nM | 1.2 nM
8 | CC(C)n1nc(-c2ccc(C(F)(F)F)cc2)nc1[C@H]1CC[C@@H](N2CCC3(C2)CS(=O)(=O)C3)C1 (single isomer, unassigned) [53B*] | 9.9 nM | 2.4 nM | 0.89 nM
9 | CC(C)n1nc(-c2ccc(C(F)(F)F)cc2)nc1[C@@H]1CC[C@@H](N2CCC3(C2)CS(=O)(=O)C3)C1 (single isomer, unassigned) [53D*] | 96 nM | 3.3 nM | 1 nM
10 | O=S1(=O)CC2(CCN([C@@H]3CCC[C@@H](c4ccc(C(F)(F)F)nc4)C3)C2)C1 (single isomer, unassigned) [54B*] | 100 nM | 1000 nM | 240 nM
11 | O=S1(=O)CC2(CCN([C@H]3CCC[C@H](c4ccc(C(F)(F)F)nc4)C3)C2)C1 (single isomer, unassigned) [54D*] | 68 nM | 35 nM | 13 nM
12 | O=S1(=O)CC2(CCN([C@@H]3CCCN(c4ccc(C(F)(F)F)cc4)C3)CC2)C1 (single isomer, unassigned) [55A*] | 2.8 nM | 15 nM | 2.3 nM
13 | O=S1(=O)CC2(CCN([C@H]3CCCN(c4ccc(C(F)(F)F)cc4)C3)CC2)C1 (single isomer, unassigned) [55B*] | 14 nM | 330 nM | 25 nM
14 | CC(C)n1nc(C(F)(F)F)cc1[C@H]1CC[C@@H](N2CCC[C@@]3(CCS(=O)(=O)C3)C2)CC1 (single isomer, unassigned) [91A*] |  | 9.4 nM | 3.4 nM
15 | O=S1(=O)CC2(CCN([C@H]3CC[C@H](c4ccc(C(F)(F)F)cn4)CC3)C2)C1 [Compound 49, 6-((1r,4r)-4-(5-(Trifluoromethyl)pyridin-2-yl)cyclohexyl)-2-thia-6-azaspiro[3.4]octane 2,2-dioxide] |  | 15 nM | 9.9 nM
16 | O=S1(=O)CC2(CCN([C@H]3CC[C@H](c4ccc(C(F)(F)F)cn4)CC3)CC2)C1 [Compound 50A, 7-((1r,4r)-4-(5-(Trifluoromethyl)pyridin-2-yl)cyclohexyl)-2-thia-7-azaspiro[3.5]nonane 2,2-dioxide] |  | 29 nM | 26 nM
17 | O=S1(=O)CC2(CCN([C@H]3CC[C@@H](c4ccc(C(F)(F)F)cn4)CC3)CC2)C1 [Compound 50B, 7-((1s,4s)-4-(5-(trifluoromethyl)pyridin-2-yl)cyclohexyl)-2-thia-7-azaspiro[3.5]nonane 2,2-dioxide] |  | 45 nM | 32 nM
18 | O=S1(=O)CC2(CCN([C@H]3CC[C@H](c4cnc(C(F)(F)F)c(F)c4)CC3)C2)C1 [Compound 72A, 6-((1r,4r)-4-(5-fluoro-6-(trifluoromethyl)pyridin-3-yl)cyclohexyl)-2-thia-6-azaspiro[3.4]octane 2,2-dioxide] |  | 18 nM | 9.4 nM
19 | O=S1(=O)CC2(CCN([C@H]3CC[C@@H](c4ccnc(C(F)(F)F)c4)CC3)CC2)C1 [Compound 90A, 7-((1s,4s)-4-(2-(Trifluoromethyl)pyridin-4-yl)cyclohexyl)-2-thia-7-azaspiro[3.5]nonane 2,2-dioxide] |  | 240 nM | 31 nM
20 | O=S1(=O)CC2(CCN([C@H]3CC[C@@H](c4ccc(C(F)(F)F)cn4)CC3)C2)C1 [Compound 96, 6-((1s,4s)-4-(5-(Trifluoromethyl)pyridin-2-yl)cyclohexyl)-2-thia-6-azaspiro[3.4]octane 2,2-dioxide] |  | 110 nM | 71 nM
